Results published in patent US20190117624A1, “THERAPEUTIC AGENT FOR INFLAMMATORY BOWEL DISEASES” (DAIICHI SANKYO COMPANY, LIMITED, priority 2016, published 2019).

System: dextran sodium sulfate-induced ulcerative colitis in rats
Assay: Drug efficacy on dextran sodium sulfate-induced ulcerative colitis in rats (erosion area of the large intestinal mucosa)
Format: in vivo, rat
Conditions: for erosion area / inhibition rate (erosion area): 14 days; for erosion area: DSS colitis rats, mean±standard error, control 330.3±15.4; for inhibition rate (erosion area): vs control group
Procedure: The test of drug efficacy of a TAFIa inhibitor on dextran sodium sulfate-induced ulcerative colitis in rats will be described below. This test was conducted by commissioning to NISSEI BILIS Co., Ltd.
A TAFIa inhibitor, (2S)-5-amino-2-{[1-(trans-4-methylcyclohexyl)-1H-imidazol-4-yl]methyl}valeric acid p-toluenesulfonate anhydride (hereinafter referred to as “compound A”) was dissolved in a 0.5% aqueous sodium carboxymethylcellulose solution (hereinafter referred to as “CMC-Na”) to prepare a dosing solution for oral administration of 0.6, 2, 6 and 20 mg/mL. The dosage was determined by conversion into a free form with a conversion factor of 0.6301. The chemical structure of compound A is as follows: […]
7-Week old male LEW/SsN Slc rats (Japan SLC, Inc.) were allowed to drink 3% dextran sodium sulfate (hereinafter referred to as “DSS”) freely to create ulcerative colitis models. Individuals meeting selection criteria for model animals shown in 1-3 below were selected followed by switching to free drinking of 1% aqueous DSS solution to maintain the ulcerative colitis models.
Thereafter, animals that met the selection criteria were selected.
The tests were conducted in two separate groups (the first half: 5 animals/group; the second half: 5 animals/group). The untreated individuals and the individuals meeting the above selection criteria were selected as adopted animals, and grouped into groups of 5 animals/group with the body weight as a main parameter and the hemoglobin concentration as a secondary parameter, according to stratified randomized assignment so as not to cause a difference in the average value among the groups (the total of two tests: 10 animals/group).
Administration route: Oral administration
Administration volume: 5 mL/kg
[…] Administration was conducted by masking the test groups (that is, individual identification numbers were recorded in the animal cards, and administration was conducted in a blinded manner). Note that the administration on the selection day (the first day of administration) was conducted only once in the afternoon.
Each of animals was fasted from the end of the final administration. On the day of dissection, approximately 3 mL of blood was collected from the abdominal aorta under anesthesia with pentobarbital sodium (30 mg/kg, i.p.) by using a polypropylene disposable syringe and an injection needle. Immediately after blood collection, the large intestine (the colon and the rectum) was isolated and immersed in physiological saline kept warm at approximately 37° C., and the length of the large intestine was measured in a relaxed state. Thereafter, a 10% neutral buffered formalin solution was infused into the large intestine, and the large intestine was immersed in physiological saline with the lumen expanded and temporarily fixed for 1 hour or more. After temporary fixation, the large intestine was dissected along the mesentery attachment site, immersed in a stretched state in a 10% neutral buffered formalin solution, and fixed for 1 week or more. The fixed large intestine specimen was washed with running water for approximately 5 minutes, further with distilled water three times, and then immersed in a 3% aqueous acetic acid solution for approximately 5 minutes as a pretreatment.
The large intestine specimen stained with a 1% Alcian blue solution was photographed. The photograph was captured on an image analysis device (general-purpose image processor WinROOF, Version 5.7, MITANI CORPORATION), and the area of deep blue part was measured. This measurement value was used as the erosion area.
The erosion area was expressed as mean±standard error. A significant difference test between the control group and each group was conducted by a homoscedasticity test (F-test) followed by Student's t test in the case of homoscedasticity and by Aspin-Welch's t test in the case of heteroscedasticity (significance level: 5%).

Question: What does the source list for `O=C(O)c1cc(/N=N/c2ccc(S(=O)(=O)Nc3ccccn3)cc2)ccc1O` [SASP, Salazosulfapyridine, reference compound]?
Answer: erosion area (300 mg/kg orally once a day): 261.6±22.7 mm^2; inhibition rate (erosion area) (300 mg/kg orally once a day): 20.8%; erosion area compared to the control group (significance) (300 mg/kg orally once a day, Student's t test P<0.05): significant reduction in the erosion area

Question: `C[C@H]1CC[C@H](n2cnc(C[C@H](CCCN)C(=O)O)c2)CC1.Cc1ccc(S(=O)(=O)O)cc1` [compound A, (2S)-5-amino-2-{[1-(trans-4-methylcyclohexyl)-1H-imidazol-4-yl]methyl}valeric acid p-toluenesulfonate anhydride] was tested. Which “erosion area compared to the control group (significance)” value (3 mg/kg orally twice a day) did it give?
Answer: No significant difference

Question: What about the erosion area (3 mg/kg orally twice a day) of the same compound?
Answer: 291.8±13.1 mm^2

Question: What about the “inhibition rate (erosion area)” value (3 mg/kg orally twice a day) of the same compound?
Answer: 11.7%

Question: What about the erosion area (10 mg/kg orally twice a day) of the same compound?
Answer: 281.6±11.1 mm^2

Question: And the “inhibition rate (erosion area)” value (10 mg/kg orally twice a day)?
Answer: 14.7%

Question: What about the “erosion area compared to the control group (significance)” value (10 mg/kg orally twice a day, Student's t test P<0.05) of the same compound?
Answer: significant reduction in the erosion area

Question: And the erosion area (30 mg/kg orally once a day)?
Answer: 264.0±7.9 mm^2

Question: And the “inhibition rate (erosion area)” value (30 mg/kg orally once a day)?
Answer: 20.1%

Question: What about the “erosion area compared to the control group (significance)” value (30 mg/kg orally once a day, Student's t test P<0.01) of the same compound?
Answer: significant reduction in the erosion area

Question: What about the erosion area (30 mg/kg orally twice a day) of the same compound?
Answer: 262.89±13.9 mm^2

Question: And the “inhibition rate (erosion area)” value (30 mg/kg orally twice a day)?
Answer: 20.4%

Question: And the “erosion area compared to the control group (significance)” value (30 mg/kg orally twice a day, Student's t test P<0.01)?
Answer: significant reduction in the erosion area

Question: What about the erosion area (100 mg/kg orally twice a day) of the same compound?
Answer: 261.9±12.7 mm^2

Question: And the “inhibition rate (erosion area)” value (100 mg/kg orally twice a day)?
Answer: 20.7%

Question: What about the “erosion area compared to the control group (significance)” value (100 mg/kg orally twice a day, Student's t test P<0.01) of the same compound?
Answer: significant reduction in the erosion area

Question: What about the “reduction effect of the erosion area (overall conclusion)” value (rat ulcerative colitis model) of the same compound?
Answer: significant reduction effect of the erosion area
